Assay results: US6699833B1, “Pharmaceutical formulations for sustained drug delivery” (Praecis Pharmaceuticals, Inc., priority 1996, dated 2004)
Where a SMILES comes first, the peptide text is derived from it. [ ]: non-standard residue; d: D form. dPhe(4-Cl) = N[C@H](Cc1ccc(Cl)cc1)C(=O)O; d2Nal = N[C@H](Cc1ccc2ccccc2c1)C(=O)O; Lys(iPr) = CC(C)NCCCC[C@H](N)C(=O)O; NMeY = CN[C@@H](Cc1ccc(O)cc1)C(=O)O; d3Pal = N[C@H](Cc1cccnc1)C(=O)O

Conditions: rat, in vivo
Experimental: On day 30, the LHRH agonist Lupron™ (leuprolide) was injected into the rats. Plasma testosterone levels (in ng/ml; indicated by the open boxes in FIG. 2) were determined at various time points as a measure of the activity of the LHRH antagonist in the animal. Plasma levels of PPI-149 (in ng/ml) were also monitored in the animals (indicated by the closed boxes in FIG. 2).

Q: For CC(=O)N[C@H](Cc1ccc2ccccc2c1)C(=O)N[C@H](Cc1ccc(Cl)cc1)C(=O)N[C@H](Cc1cccnc1)C(=O)N[C@@H](CO)C(=O)N(C)[C@@H](Cc1ccc(O)cc1)C(=O)N[C@H](CC(N)=O)C(=O)N[C@@H](CC(C)C)C(=O)N[C@@H](CCCCNC(C)C)C(=O)N1CCC[C@H]1C(=O)N[C@H](C)C(N)=O [PPI-149, Ac-D-Nal^1,4-Cl-D-Phe^2, D-Pal^3, N-Me-Tyr^5, D-Asn^6, Lys(iPr)^8, D-Ala^10-LHRH] (Ac-[d2Nal][dPhe(4-Cl)][d3Pal]S[NMeY][dN]L[Lys(iPr)]P[dA]-NH2), which “day beyond which PPI-149 could not be detected in plasma” value is on record?
A: Its value is roughly 8 days.
